The source of these data is patent US20230089368A1, “POLYAROMATIC UREA DERIVATIVES AND THEIR USE IN THE TREATMENT OF MUSCLE DISEASES” (ANAGENESIS BIOTECHNOLOGIES S.A.S., priority 2019, published 2023).

Structures can show the parent of a compound that is named as a salt. A value given as a limit tells only on which side of the number the result lay.

Test [1] relates to muscle progenitors (hMP) from DMD hiPSC or WT hiPSC. In words: Myotube assay: myogenic activity (total myotube area per well). In kind it is cell-based, human. The note with it: for Emax: Homo sapiens, 72 h, myotube assay, compounds incubated 3 days, read-out: MA (normalized Myotube Area, efficacy). On the procedure: An in vitro assay for assessing the efficacy of compounds for use in treating, ameliorating, delaying, curing and/or preventing a disease or condition associated with muscle cells and/or satellite cells is described in example 78. Herein, the generation of myotubes and satellite cells after adding a compound to a myotube assay workflow is assessed. Said myotube assay workflow is derived from wild-type or DMD human induced pluripotent stem cells (WT hiPSC or DMD hiPSC). Before the addition of said compound, the assay comprises satellite-like cells, but no significant amount of myotubes.
(§1) The efficacy of said compound for use in treating, ameliorating, delaying, curing and/or preventing a disease or condition associated with muscle cells and/or satellite cells is positively correlated with the generation of myotubes (i.e. the increase of the area occupied by myotubes on the assay) and/or satellite cells (i.e. the increase of the number of satellite cells) in the assay after adding said compound. The generation of myotubes by the addition of said compound is expressed as the EC50 value, the concentration of said compound that corresponds with the half-maximal generation of myotubes, and the MA (normalized myotube area) value, the normalized area occupied by generated myotubes on the assay. […] Since muscle cells are formed from myotubes during myogenesis, the generation of myotubes in the assay is a good indicator of the ability of said compound to induce the formation of functional muscle cells in vivo. The number of satellite cells is measured as the percentage of Pax7 positive cells, relative to the total number of cells in the assay, as shown in FIG. 3. The percentage of Pax7 is a good indicator of the ability of said compound to induce the formation of satellite cells which are able to play a role in muscle repair and regeneration in vivo.
(§2) DMD human induced pluripotent stem cells (hereafter “DMD hiPSC”), generated from the NORM-1 hiPSC WT cell line by gene editing, or WT human induced pluripotent stem cells (hereafter “WT hiPSC”), being NORM-1 hiPSC wt cell line, have been differentiated according to Chal et al. 2015, 2016, to produce muscle progenitors (hereafter “hMP”). The hMP population contains satellite-like cells (i.e Pax7-positive cells) and satellite cells' progenies (i.e. Myogenin-positive cells).
(§3) FIG. 1 provides an example of a Myotube assay workflow. At day 0, hMP are thawed and 3.1 million cells are plated into a T75-flask coated with hESC-qualified Matrigel™ (Corning) in SkGM proliferating medium (PromoCells), supplemented with 5 μM Y-27632 (Tocris Bioscience). On day 2, SkGM proliferating medium is refreshed. On day 4, hMP are harvested and transferred into a 384-well plate coated with collagen type I at a density of 3500 cells/well in a DMEM-based medium, containing 5% of knockout serum replacement (Gibco), 1% PenStrep (Gibco), 1% MEM NEAA (Gibco) and 0.1 mM 2-mercaptoethanol (Gibco) (hereafter “K5 medium”) and 5 μM Y-27632. Compounds to be tested are then added in the medium and incubated for 3 days at 37° C. On day 7, cells are fixed and immunostained. For example, myotubes (alpha-actinin staining) and satellite-like (Pax7 staining) cells can be analyzed for total myotube area per well or Pax7-positive cell quantification.
DMD hMP were put in the Myotube assay according to the workflow described in Example 2.1. In particular, compound (i) was added at concentrations ranging from 1.5 nM to 30 μM, starting from day 4. hMP were cultivated for three more days in presence of compound (i), then fixed and analyzed for quantification of total myotube area per well. Duplicates of each condition were averaged.
Qualitative scale: ++++: EC50<500 nM; +++: 500 nM≤EC50<1000 nM; ++: 1000 nM≤EC50<5000 nM; +: EC50≥5000 nM; +++: MA≥75%; ++: 50%≤MA<75%; +: 25%≤MA<50%.

Test [2] concerns satellite-like cells (Pax7-positive cells) in hMP. In words: Myotube assay: Pax7-positive (satellite-like) cell quantification. It counts as cell-based, human. Details: key to Pax7% (pool of Pax7-positive cells) / Pax7: −: Depletes the pool of cells, while positively affects the myotubes; +: Maintains or increases the pool of cells, with at least 1 of the highest concentration known to be cytotoxic; ++: Maintains or increases the pool of cells, without any toxicity. The note with it: for Pax7% (pool of Pax7-positive cells): myotube assay, compounds incubated 3 days.
From the text: as §1, §2, §3
DMD hMP were put in the Myotube assay according to the workflow described in Example 2.1. In particular, compound (i) was added at concentrations ranging from 1.5 nM to 30 μM, starting from day 4. hMP were cultivated for three more days in presence of compound (i), then fixed and analyzed for percentage of Pax7-positive cells and nuclei number. Duplicates of each condition were averaged.
(−): Depletes the pool of cells, while positively affects the myotubes; (+): Maintains or increases the pool of cells, with at least 1 of the highest concentration known to be cytotoxic; and (++) Maintains or increases the pool of cells, without any toxicity.

Regarding `CC(C)(C)c1cc(NC(=O)Nc2ccc(Oc3ccnc4[nH]c(=O)cnc34)cc2F)n(-c2ccc3ncccc3c2)n1` [(n), 1-(3-(tert-butyl)-1-(quinolin-6-yl)-1H-pyrazol-5-yl)-3-(2-fluoro-4-((3-oxo-3,4-dihydropyrido[2,3-b]pyrazin-8-yl)oxy)phenyl)urea], the Emax in test [1] was not below 75%. Moreover, the “Pax7% (pool of Pax7-positive cells)” value in test [2] is reported as “+”.

In the case of `CSc1cc(Oc2ccnc3c2OCC(=O)N3)ccc1NC(=O)Nc1cc(C(C)(C)C)nn1-c1ccccc1` [(ct), 1-(3-(tert-butyl)-1-phenyl-1H-pyrazol-5-yl)-3-(2-(methylthio)-4-((3-oxo-3,4-dihydro-2H-pyrido[3,2-b][1,4]oxazin-8-yl)oxy)phenyl)urea], the Emax in test [1] was not below 75%. Also, in test [2], the “Pax7% (pool of Pax7-positive cells)” value is “+”.

Take `CC(C)(C)c1cc(NC(=O)Nc2ccc(Oc3ccnc4[nH]c(=O)cnc34)cc2F)n(-c2ncccn2)n1` [(m), 1-(3-(tert-butyl)-1-(pyrimidin-2-yl)-1H-pyrazol-5-yl)-3-(2-fluoro-4-((3-oxo-3,4-dihydropyrido[2,3-b]pyrazin-8-yl)oxy)phenyl)urea]: in test [1], the Emax lay within 50 to 75%. The “Pax7% (pool of Pax7-positive cells)” value in test [2] is “++”.

For the compound `CC(C)(C)c1cc(NC(=O)Nc2ccc(Oc3ccnc4[nH]c(=O)cnc34)cc2)n(-c2ccccc2)n1` [(s), 1-(3-(tert-butyl)-1-phenyl-1H-pyrazol-5-yl)-3-(4-((3-oxo-3,4-dihydropyrido[2,3-b]pyrazin-8-yl)oxy)phenyl)urea], the Emax in test [1] was 50 to 75%. Moreover, the “Pax7% (pool of Pax7-positive cells)” value in test [2] is “+”.

Regarding `CSc1cc(Oc2ccnc(NCCN(C)C)c2)ccc1NC(=O)Nc1cc(C(C)(C)C)nn1-c1ccccc1` [(ck), 1-(3-(tert-butyl)-1-phenyl-1H-pyrazol-5-yl)-3-(4-((2-((2-(dimethylamino)ethyl)amino)pyridin-4-yl)oxy)-2-(methylthio)phenyl)urea Hydrochloride], in test [1], the Emax was not below 75%. In addition, the “Pax7% (pool of Pax7-positive cells)” value in test [2] is given as “+”.

`CC(C)(C)c1cc(NC(=O)Nc2cccc(Oc3ccnc4[nH]c(=O)cnc34)c2F)n(-c2ccccc2)n1` [(cw), 1-(3-(tert-butyl)-1-phenyl-1H-pyrazol-5-yl)-3-(2-fluoro-3-((3-oxo-3,4-dihydropyrido[2,3-b]pyrazin-8-yl)oxy)phenyl)urea]: in test [1], the Emax is not below 75%. Also, in test [2], the “Pax7% (pool of Pax7-positive cells)” value is reported as “++”.

In the case of `CSc1cc(Oc2ccnc(NC(=O)OCc3ccccc3)c2)ccc1NC(=O)Nc1cc(C(C)(C)C)nn1-c1ccccc1` [(cx), Benzyl (4-(4-(3-(3-(tert-butyl)-1-phenyl-1H-pyrazol-5-yl)ureido)-3-(methylthio)phenoxy)pyridin-2-yl)carbamate], in test [1], the Emax is not below 75%. Moreover, the “Pax7% (pool of Pax7-positive cells)” value in test [2] is given as “+”.

Turning to `CNC(=O)c1ccc(Oc2ccc(NC(=O)Nc3cc(C(C)(C)C)nn3-c3ccccc3)c(SC)c2)cn1` [(ap), 5-(4-(3-(3-(tert-butyl)-1-phenyl-1H-pyrazol-5-yl)ureido)-3-(methylthio)phenoxy)-N-methylpicolinamide], in test [1], the Emax lay within 25 to 50%. In test [2], the “Pax7% (pool of Pax7-positive cells)” value is “++”.

The term EC50 denotes the midpoint of the concentration-response curve. For `CC(C)(C)c1cc(NC(=O)Nc2ccc(Oc3ccnc4[nH]c(=O)cnc34)cc2F)n(-c2ccccc2)n1` [CCT196969], the MA entry in test [1] (comparative compounds, same assay, NA: non active) was “++ (50%≤MA<75%)”. In test [1] (comparative compounds, same assay, NA: non active, read-out: EC50), the EC50 was in the range of 500 to 1000 nM. For the same compound, the Pax7 entry in test [2] (comparative compounds, same assay) is on record as “+”.

With `CSc1cc(Oc2ccnc3[nH]c(=O)cnc23)ccc1NC(=O)Nc1cc(C(C)(C)C)no1` [(bx), 1-(3-(tert-butyl)isoxazol-5-yl)-3-(2-(methylthio)-4-((3-oxo-3,4-dihydropyrido[2,3-b]pyrazin-8-yl)oxy)phenyl)urea], the Emax in test [1] was not below 75%. Also, the “Pax7% (pool of Pax7-positive cells)” value in test [2] was “++”.
